Earlier results on 15 compounds are cited in patent US20230240327A1, “FUNCTIONAL SOYBEAN MEAL” (CAN TECHNOLOGIES, INC., priority 2020, published 2023).

Read-outs that look alike come from different tables or passages of the source.

For data set [1] the following is noted: Table 7.
The test system of a further data set is microorganisms. The note with it: according to several studies; compared with antibiotics.
For the next data set, the system named is Bacteria. The note with it: when in their dissociated form.

As a reminder, the pKa is the pH at which an ionisable group is half protonated. In the case of `CCCCCCCCCCCC(=O)O` [Lauric acid], the pKa in data set [1] is 5.13. As to `O=C(O)/C=C/C(=O)O` [Fumaric acid], the Main effects result in the data set on poultry (0.50 - 1.00 wt% of feed (fumaric acid)) is given as “Improvement in weight gain of broilers”. With `C=CCc1ccc(O)c(OC)c1` [eugenol], in the data set with microorganisms, the antimicrobial activity entry is “stronger than in some antibiotics”. Turning to `C/C=C/C=C/C(=O)O` [Sorbic acid], the Main effects result in the data set on poultry (1.12 wt% of feed) is reported as “Improves feed efficiency”. The bactericidal effect result in the data set with Bacteria was “bactericidal effect”.

For the compound `CC(O)C(=O)O` (stereo not drawn) [Lactic acid], in the data set with poultry (2.00 wt% of feed), the Main effects entry was “Feed to gain ratio significantly improved. Body weight gain”. Further, the bactericidal effect result in the data set on Bacteria is given as “bactericidal effect”.

Turning to `O=C(O)c1ccccc1` [Benzoic acid], the Main effects entry in the data set on poultry (0.20 wt% of feed) is “Positive influence on growth”. Take `O=CO` [Formic acid]: the Main effects result in the data set on poultry (0.50 - 1.00 wt% of feed (formic acid)) is “Reduction of coecal pH and bactericidal effect on Salmonella”. For the same compound, the bactericidal effect result in the data set with Bacteria is on record as “bactericidal effect”. Turning to `CCCC(=O)O` [Butyric acid], the Main effects entry in the data set on poultry (0.15 wt% of feed (butyric acid)) is given as “Maintain the beneficial micro flora”. Take `CC(C)=CCC/C(C)=C/CO` [geraniol]: the antimicrobial activity result with microorganisms was “stronger than in some antibiotics”. With `CCC(=O)O` [Propionic acid (buffered), Propionic acid], in the data set with poultry (0.15 - 0.20 wt% of feed (buffered propionic acid)), the Main effects entry is listed as “Increase in dressing percentage in female broilers”. Regarding `O=C(O)C(O)C(O)C(=O)O` (stereo not drawn) [Tartaric acid], the Main effects entry with poultry (0.33 wt% of feed) is “Improves weight gain”.

Take `CCC(=O)O` [Propionic acid]: the bactericidal effect result in the data set with Bacteria is listed as “bactericidal effect”. On to `O=C(O)CC(O)C(=O)O` (stereo not drawn) [Malic acid], for which the Main effects result in the data set on poultry (0.50 - 2.00 wt% of feed) was “Increase in weight gain”. As for `Cc1ccc(C(C)C)cc1O` [carvacrol], in the data set on microorganisms, the antimicrobial activity entry is given as “stronger than in some antibiotics”.

Regarding `Cc1ccc(C(C)C)c(O)c1` [thymol], the antimicrobial activity result in the data set on microorganisms is listed as “stronger than in some antibiotics”.
